Series [1] can be described thus: Inhibition of hedgehog signaling pathway in mouse Shh Light2 cells by Gli-dependent reporter gene assay. Type of series: functional, cell-based. The conditions noted are these: Shh Light II.
For series [2], the target named is Voltage-gated inwardly rectifying potassium channel KCNH2 (Homo sapiens, UniProt Q12809).
Series [3] in a line: Intrinsic clearance in rat liver microsomes assessed per mg of protein. Type of series: ADME, Microsome.
Series [4] concerns the target T1, Protein smoothened (Homo sapiens, UniProt Q99835). The series can be described thus: Displacement of BODIPY-cyclopamine from Smo expressed in COS-1 cells after 4 to 6 hrs by Flow Cytometry analysis in presence of 2% fetal calf serum. Type of series: cell-based.
Series [5] addresses T1, Protein smoothened. The series can be described thus: Displacement of BODIPY-cyclopamine from Smo expressed in COS-1 cells after 4 to 6 hrs by Flow Cytometry analysis in presence of 20% normal human serum. Type of series: cell-based.
Series [6] is described as follows: Intrinsic clearance in human liver microsomes assessed per mg of protein. The series is classed as ADME, Microsome.
Series [7] in a line: Lipophilicity, log D of the compound. Type of series: physicochemical. The conditions noted are these: octanol/water.
The nature of series [8]: Clearance in iv dosed rat. The series is classed as ADME, organism-based. The conditions noted are these: in vivo.

SMILES strings stand for the structures.

T1 sequence (Q99835 whole entry): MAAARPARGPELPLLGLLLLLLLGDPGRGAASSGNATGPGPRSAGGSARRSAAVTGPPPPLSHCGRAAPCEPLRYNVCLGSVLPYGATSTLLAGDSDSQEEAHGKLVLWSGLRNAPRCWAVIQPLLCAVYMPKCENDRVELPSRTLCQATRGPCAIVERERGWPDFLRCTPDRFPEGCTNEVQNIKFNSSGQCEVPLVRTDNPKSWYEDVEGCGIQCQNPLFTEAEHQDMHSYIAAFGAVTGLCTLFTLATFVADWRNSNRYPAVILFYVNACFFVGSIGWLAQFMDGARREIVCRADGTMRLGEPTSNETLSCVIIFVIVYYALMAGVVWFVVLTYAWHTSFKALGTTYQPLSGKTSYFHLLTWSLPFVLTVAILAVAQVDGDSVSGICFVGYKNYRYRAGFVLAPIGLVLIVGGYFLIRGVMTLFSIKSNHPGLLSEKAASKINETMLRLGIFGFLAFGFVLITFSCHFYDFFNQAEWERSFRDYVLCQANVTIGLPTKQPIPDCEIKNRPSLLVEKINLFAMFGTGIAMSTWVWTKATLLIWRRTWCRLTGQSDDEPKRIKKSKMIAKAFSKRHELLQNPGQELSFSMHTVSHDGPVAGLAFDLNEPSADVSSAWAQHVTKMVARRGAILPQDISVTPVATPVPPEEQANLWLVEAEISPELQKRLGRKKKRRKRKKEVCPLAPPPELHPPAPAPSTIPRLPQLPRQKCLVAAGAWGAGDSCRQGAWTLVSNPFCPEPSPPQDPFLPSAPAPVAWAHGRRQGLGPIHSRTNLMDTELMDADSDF
Chain of Voltage-gated inwardly rectifying potassium channel KCNH2 (Q12809 whole entry): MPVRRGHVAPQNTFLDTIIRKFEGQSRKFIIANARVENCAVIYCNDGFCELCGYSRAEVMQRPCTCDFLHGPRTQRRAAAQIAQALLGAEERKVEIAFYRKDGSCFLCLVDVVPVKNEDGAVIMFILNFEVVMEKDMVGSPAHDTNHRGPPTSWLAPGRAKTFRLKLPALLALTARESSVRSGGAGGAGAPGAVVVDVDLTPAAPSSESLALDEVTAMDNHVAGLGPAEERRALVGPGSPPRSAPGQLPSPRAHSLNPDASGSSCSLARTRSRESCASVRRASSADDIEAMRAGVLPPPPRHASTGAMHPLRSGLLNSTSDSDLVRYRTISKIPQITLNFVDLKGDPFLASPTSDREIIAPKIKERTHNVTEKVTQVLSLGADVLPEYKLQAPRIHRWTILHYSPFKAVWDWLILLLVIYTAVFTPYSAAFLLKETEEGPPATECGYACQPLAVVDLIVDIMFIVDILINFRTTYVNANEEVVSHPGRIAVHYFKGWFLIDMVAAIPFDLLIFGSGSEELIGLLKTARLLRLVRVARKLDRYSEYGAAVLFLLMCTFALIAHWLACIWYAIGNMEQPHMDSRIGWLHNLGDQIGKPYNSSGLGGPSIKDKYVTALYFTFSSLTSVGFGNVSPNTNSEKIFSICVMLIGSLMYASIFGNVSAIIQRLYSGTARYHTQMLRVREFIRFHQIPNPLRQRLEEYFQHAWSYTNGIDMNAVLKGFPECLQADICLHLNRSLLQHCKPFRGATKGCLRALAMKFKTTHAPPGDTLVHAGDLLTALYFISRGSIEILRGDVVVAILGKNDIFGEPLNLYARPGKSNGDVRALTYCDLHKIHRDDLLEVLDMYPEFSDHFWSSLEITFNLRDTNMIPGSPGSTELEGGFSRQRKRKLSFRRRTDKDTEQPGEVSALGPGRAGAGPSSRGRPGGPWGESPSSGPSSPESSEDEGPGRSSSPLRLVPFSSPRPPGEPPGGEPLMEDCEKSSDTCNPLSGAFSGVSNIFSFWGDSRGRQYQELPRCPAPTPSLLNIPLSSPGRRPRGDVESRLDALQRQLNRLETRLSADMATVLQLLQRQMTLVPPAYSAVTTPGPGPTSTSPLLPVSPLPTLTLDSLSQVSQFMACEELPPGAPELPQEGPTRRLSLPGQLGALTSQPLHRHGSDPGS

`O=C(NCC1(N2CCOCC2)CCCC1)N1CCC(c2nc(-c3ccc4ccccc4n3)no2)CC1`: the half-maximal inhibitory concentration (IC50) turned out to be 46 nM in series [1], 10000 nM in series [2], 30 nM in series [4] and 100 nM in series [5]. The results for the microsomal CLint in series [3] and in series [6] were more than 500 µL/min/mg and more than 400 µL/min/mg, respectively. The same compound gave a logD in series [7] of 2.62.

On to `O=C(NCC1(c2ccccc2)CCCC1)N1CCC(c2nc(-c3ccc4ccccc4n3)no2)CC1`, for which the half-maximal inhibitory concentration (IC50) in series [1] was 410 nM; in series [4], 810 nM; in series [5], 4500 nM.

With `O=C(NCC1(CO)CCCC1)N1CCC(c2nc(-c3ccc4ccccc4n3)no2)CC1`, the half-inhibitory concentration (IC50) stood at 600 nM in series [1], 910 nM in series [4] and 6900 nM in series [5].

Turning to `O=C(NCC1(C(=O)N2CCCCC2)CCCC1)N1CCC(c2nc(-c3ccc4ccccc4n3)no2)CC1`, the IC50 in series [4] was found to be 230 nM; in series [5], 7000 nM.

`CC(=O)NC1(CNC(=O)N2CCC(c3nc(-c4ccc5ccccc5n4)no3)CC2)CCCC1`: the IC50 in series [1] worked out at 190 nM; in series [4] it was 320 nM; in series [5], 13000 nM.

On to `CC(C)(C)OC(=O)NC1(CNC(=O)N2CCC(c3nc(-c4ccc5ccccc5n4)no3)CC2)CCCC1`, for which the results for the IC50 in series [1], in series [4] and in series [5] were 2000 nM, 2000 nM and 14000 nM, respectively.

Consider `O=C(NCCN1CCOCC1)N1CCC(c2nc(-c3ccc4ccccc4n3)no2)CC1`, for which the values for the 50% inhibitory concentration (IC50) in series [1], in series [4] and in series [5] were 2500 nM, 4900 nM and 3400 nM, respectively.

For the compound `CC(C)(CNC(=O)N1CCC(c2nc(-c3ccc4ccccc4n3)no2)CC1)N1CCOCC1`, the results for the IC50 in series [1], in series [4] and in series [5] were 450 nM, 290 nM and 670 nM, respectively. Further, the microsomal CLint in series [3] is more than 300 µL/min/mg; in series [6], 112 µL/min/mg.

Take `O=C(NCC1(N2CCOCC2)CCCCC1)N1CCC(c2nc(-c3ccc4ccccc4n3)no2)CC1`: the IC50 is 140 nM in series [1], 4300 nM in series [2], 23 nM in series [4] and 72 nM in series [5]. Further, the intrinsic clearance (microsomal CLint) in series [3] and in series [6] was more than 500 µL/min/mg each time.

For `O=C(NCC1(N2CCOCC2)CCCCCC1)N1CCC(c2nc(-c3ccc4ccccc4n3)no2)CC1`, the half-maximal inhibitory concentration (IC50) worked out at 330 nM in series [1], 240 nM in series [4] and 480 nM in series [5].

For the compound `O=C(NCC1(N2CCCC2)CCCC1)N1CCC(c2nc(-c3ccc4ccccc4n3)no2)CC1`, the 50% inhibitory concentration (IC50) amounted to 69 nM in series [1], 7100 nM in series [2], 32 nM in series [4] and 42 nM in series [5]. Besides, the microsomal CLint was found to be 100 µL/min/mg in series [3] and 52 µL/min/mg in series [6].

With `O=C(NCC1(N2CCCCC2)CCCC1)N1CCC(c2nc(-c3ccc4ccccc4n3)no2)CC1`, the half-inhibitory concentration (IC50) worked out at 100 nM in series [1], 46 nM in series [4] and 51 nM in series [5]. The figures for the microsomal CLint in series [3] and in series [6] were 160 µL/min/mg and 49 µL/min/mg, respectively. Besides, the clearance in series [8] was more than 100 mL/min/kg.

Take `CCN(CC)C1(CNC(=O)N2CCC(c3nc(-c4ccc5ccccc5n4)no3)CC2)CCCC1`: the IC50 in series [1] came out at 120 nM; in series [2], 9400 nM; in series [4] it was 55 nM; in series [5], 46 nM. The microsomal CLint in series [3] is more than 200 µL/min/mg; in series [6], 98 µL/min/mg.

`CN(C)C1(CNC(=O)N2CCC(c3nc(-c4ccc5ccccc5n4)no3)CC2)CCCC1`: the IC50 in series [1] came out at 310 nM; in series [2], 38000 nM; in series [4], 300 nM; in series [5], 370 nM. Moreover, the intrinsic metabolic clearance (microsomal CLint) came to 27 µL/min/mg in series [3] and 40 µL/min/mg in series [6].

In the case of `NC1(CNC(=O)N2CCC(c3nc(-c4ccc5ccccc5n4)no3)CC2)CCCC1`, the IC50 in series [1] stood at 350 nM; in series [4] it was 630 nM; in series [5] it was 790 nM.

As for `CCNC1(CNC(=O)N2CCC(c3nc(-c4ccc5ccccc5n4)no3)CC2)CCCC1`, the IC50 in series [1] was determined as 88 nM; in series [2], 24000 nM; in series [4], 46 nM; in series [5], 91 nM. Besides, the intrinsic metabolic clearance (microsomal CLint) stood at 51 µL/min/mg in series [3] and 7 µL/min/mg in series [6].

Consider `CC(C)NC1(CNC(=O)N2CCC(c3nc(-c4ccc5ccccc5n4)no3)CC2)CCCC1`, for which the concentration for half-maximal inhibition (IC50) in series [1] is 25 nM; in series [4], 16 nM; in series [5], 58 nM.

`O=C(NCC1(NC2CCCCC2)CCCC1)N1CCC(c2nc(-c3ccc4ccccc4n3)no2)CC1`: the IC50 in series [1] came out at 430 nM; in series [4] it was 140 nM; in series [5], 520 nM.

Take `O=C(NCC1(N2CCC(F)CC2)CCCC1)N1CCC(c2nc(-c3ccc4ccccc4n3)no2)CC1`: the figures for the IC50 in series [1], in series [4] and in series [5] were 90 nM, 110 nM and 200 nM, respectively.

Turning to `O=C(NCC1(N2CCC(F)(F)CC2)CCCC1)N1CCC(c2nc(-c3ccc4ccccc4n3)no2)CC1`, the IC50 in series [1] came out at 100 nM; in series [4], 180 nM; in series [5], 950 nM.

With `COC1CCN(C2(CNC(=O)N3CCC(c4nc(-c5ccc6ccccc6n5)no4)CC3)CCCC2)CC1`, the figures for the IC50 in series [1], in series [4] and in series [5] were 260 nM, 210 nM and 530 nM, respectively.

In the case of `CN1CCN(C2(CNC(=O)N3CCC(c4nc(-c5ccc6ccccc6n5)no4)CC3)CCCC2)CC1`, the IC50 in series [1] stood at 450 nM; in series [4], 510 nM; in series [5], 400 nM.

`O=C(NCC(c1ccccc1)N1CCCCC1)N1CCC(c2nc(-c3ccc4ccccc4n3)no2)CC1` (stereo not given): the figures for the 50% inhibitory concentration (IC50) in series [1], in series [4] and in series [5] were 130 nM, 210 nM and 330 nM, respectively.

Take `O=C(NCC(c1ccccn1)N1CCOCC1)N1CCC(c2nc(-c3ccc4ccccc4n3)no2)CC1` (stereo not given): the IC50 is 790 nM in series [1], 2700 nM in series [4] and 4200 nM in series [5].

Take `O=C(NCC(c1cccnc1)N1CCOCC1)N1CCC(c2nc(-c3ccc4ccccc4n3)no2)CC1` (stereo not given): the IC50 in series [1] worked out at 4200 nM; in series [4] it was 2600 nM; in series [5], 9900 nM.

For the compound `O=C(NCC(c1ccncc1)N1CCOCC1)N1CCC(c2nc(-c3ccc4ccccc4n3)no2)CC1` (stereo not given), the IC50 in series [1] is 8200 nM; in series [4], 8600 nM; in series [5], 17000 nM.

As for `CCN1CCCC1CNC(=O)N1CCC(c2nc(-c3ccc4ccccc4n3)no2)CC1` (stereo not given), the values for the half-maximal inhibitory concentration (IC50) in series [4] and in series [5] were 290 nM and 490 nM, respectively.

Turning to `CC(C)N1CCCC1CNC(=O)N1CCC(c2nc(-c3ccc4ccccc4n3)no2)CC1` (stereo not given), the figures for the half-maximal inhibitory concentration (IC50) in series [1], in series [4] and in series [5] were 850 nM, 340 nM and 650 nM, respectively. In addition, the results for the microsomal CLint in series [3] and in series [6] were 19 µL/min/mg and 10 µL/min/mg, respectively. In series [8], this compound returned a clearance of more than 100 mL/min/kg.

As for `CCN1CCCCC1CNC(=O)N1CCC(c2nc(-c3ccc4ccccc4n3)no2)CC1` (stereo not given), the IC50 in series [1] amounted to 130 nM; in series [4] it was 64 nM; in series [5], 80 nM.

In the case of `CCN1CCOCC1CNC(=O)N1CCC(c2nc(-c3ccc4ccccc4n3)no2)CC1` (stereo not given), the IC50 in series [1] amounted to 230 nM; in series [4], 300 nM; in series [5], 390 nM.

Turning to `O=C(NCC1NCCc2ccccc21)N1CCC(c2nc(-c3ccc4ccccc4n3)no2)CC1` (stereo not given), the concentration for half-maximal inhibition (IC50) was 960 nM in series [1], 380 nM in series [4] and 600 nM in series [5].

Turning to `CN1CCc2ccccc2C1CNC(=O)N1CCC(c2nc(-c3ccc4ccccc4n3)no2)CC1` (stereo not given), the half-maximal inhibitory concentration (IC50) in series [1] was 380 nM; in series [4], 360 nM; in series [5] it was 470 nM.

On to `Cn1c(-c2noc(C3CCN(C(=O)NCC4(N5CCOCC5)CCCC4)CC3)n2)nc2ccccc21`, for which the half-maximal inhibitory concentration (IC50) in series [1] was 18 nM; in series [4], 17 nM; in series [5], 15 nM.

As for `Cn1c(-c2noc(C3CCN(C(=O)NCC4(N5CCCCC5)CCCC4)CC3)n2)nc2ccccc21`, the IC50 was 23 nM in series [1], 21 nM in series [4] and 19 nM in series [5].

For `O=C(NCC1(N2CCOCC2)CCCC1)N1CCN(c2nc(-c3ccc4ccccc4n3)no2)CC1`, the IC50 in series [1] came out at 16 nM; in series [4], 10 nM; in series [5] it was 15 nM.

`O=C(NCC1(N2CCCCC2)CCCC1)N1CCN(c2nc(-c3ccc4ccccc4n3)no2)CC1`: the IC50 was 40 nM in series [1], 8 nM in series [4] and 10 nM in series [5]. The clearance in series [8] was more than 100 mL/min/kg.

With `Cn1c(-c2noc(N3CCN(C(=O)NCC4(N5CCCCC5)CCCC4)CC3)n2)nc2ccccc21`, the figures for the 50% inhibitory concentration (IC50) in series [1], in series [4] and in series [5] were 4 nM, 5 nM and 6 nM, respectively.

As to `O=C(NC1CCC(F)(F)CC1)N1CCN(c2nc(-c3ccc4ccccc4n3)no2)CC1`, the results for the 50% inhibitory concentration (IC50) in series [1], in series [4] and in series [5] were 5 nM, 13 nM and 13 nM, respectively.

Source of the values: ChEMBL document CHEMBL1821583 (Bioorg Med Chem Lett, 2011).
